Measurements reported in US12180485B2, “Repressible control of gene expression” (TRUSTEES OF BOSTON UNIVERSITY, priority 2020, dated 2024).
Read-outs that look alike come from different tables or passages of the source.

B1: single CaffVHH: single CaffVHH version of split Cre 270/271 (protein)
VHH: EVQLQASGGGLVQAGGSLRLSCTASGRTGTIYSMAWFRQAPGKEREFLATVGWSSGITYYMDSVKGRFTISRDNAKNSAYLQMNSLKPEDTAVYYCTATRAYSVGYDYWGQGTQVTVSH
B2: 507/508: RfxCas13d split pair at 507/508 fused to CID or dNS3/ANR domains (protein)
chain 1: IEKKKSFAKGMGVKSTLVSGSKVYMTTFAEGSDARLEKIVEGDSIRSVNEGEAFSAEMADKNAGYKIGNAKFSHPKGYAVVANNPLYTGPVQQDMLGLKETLEKRYFGESADGNDNICIQVIHNILDIEKILAEYITNAAYAVNNISGLDKDIIGFGKFSTVYTYDEFKDPEHHRAAFNNNDKLINAIKAQYDEFDNFLDNPRLGYFGQAFFSKEGRNYIINYGNECYDILALLSGLRHWVVHNNEEESRISRTWLYNLDKNLDNEYISTLNYLYDRITNELTNSFSKNSAANVNYIAETLGINPAEFAEQYFRFSIMKEQKNLGFNITKLREVMLDRKDMSEIRKNHKVFDSIRTKVYTMMDFVIYRYYIEEDAKVAAANKSLPDNEKSLSEKDIFVINLRGSFNDDQKDALYYDEANRIWRKLENIMHNIKEFRGNKTREYKKKDAPRLPRILPAGRDVSAFSKLMYALTMFLDGKEINDLLTTLINKFDNIQSFLKVMPLIGVN
chain 2: AKFVEEYAFFKDSAKIADELRLIKSFARMGEPIADARRAMYIDAIRILGTNLSYDELKALADTFSLDENGNKLKKGKHGMRNFIINNVISNKRFHYLIRYGDPAHLHEIAKNEAVVKFVLGRIADIQKKQGQNGKNQIDRYYETCIGKDKGKSVSEKVDALTKIITGMNYDQFDKKRSVIEDTGRENAEREKFKKIISLYLTVIYHILKNIVNINARYVIGFHCVERDAQLYKEKGYDINLKKLEEKGFSSVTKLCAGIDETAPDKRKDVEKEMAERAKESIDSLESANPKLYANYIKYSDEKKAEEFTRQINREKAKTALNAYLRNTKWNVIIREDLLRIDNKTCTLFRNKAVHLEVARYVHAYINDIAEVNSYFQLYHYIMQRIIMNERYEKSSGKVSEYFDAVNDEKKYNDRLLKLLCVPFGYCIPRFKNLSIEALFDRNEAAKFDKEKKKVSGNS
modifications: fused CID or dNS3/ANR domains
notes: RfxCas13d split pair at 507/508 fused to CID or dNS3/ANR domains

What was measured:
CID domains = details: cited from earlier work; for Kd: ligand / CID dimerization domain, read-out: Dissociation constant (Kd); for Reversibility: reversibility of the ligand-induced dimerization / action
mammalian systems = details: cited from earlier work
Cre reporter = assay: Caffeine inducible split Cre (CaffVHH), Cre reporter in transfected cells; type: cell-based
mCherry = mCherry knockdown by inducible split RfxCas13d (ON switch) in transfected HEK 293 FT cells, flow cytometry; type: cell-based
[1] = toxicity in mammalian systems at working concentration

Molecule	Kd (CID domains)	Reversibility (CID domains)	Toxicity* (mammalian systems; [1])	also measured
CC1=CC(=O)CC(C)(C)[C@@]1(O)/C=C/C(C)=C\C(=O)O [Abscisic acid]	20 nM	yes	–	Toxicity* (mammalian systems): no
CO[C@H]1C[C@@H]2CC[C@@H](C)[C@@](O)(O2)C(=O)C(=O)N2CCCC[C@H]2C(=O)O[C@H]([C@H](C)C[C@@H]2CC[C@@H](O)[C@H](OC)C2)CC(=O)[C@H](C)/C=C(\C)[C@@H](O)[C@@H](OC)C(=O)[C@H](C)C[C@H](C)/C=C/C=C/C=C/1C [Rapamycin]	–	–	no	–
CC/C(=C(\c1ccccc1)c1ccc(OCCN(C)C)cc1)c1ccccc1 [Tamoxifen]	–	hardly	no	–
Cn1c(=O)c2c(ncn2C)n(C)c1=O [caffeine, reference compound]	1200 nM	yes	no	caffeine concentration able to turn on Cre activity and generate reporter expression (Cre reporter; 48 hours): 0.1 µM; caffeine concentration not sufficient to induce recombination (Cre reporter; FIG. 1C): 0.01 µM; caffeine concentration over which recombination efficiency did not increase significantly (Cre reporter; FIG. 1C): over 50 uM
Gibberellin	1000 nM	yes	yes	–
B1	–	–	–	caffeine concentration achieving maximum recombination efficiency (Cre reporter; dose response, split Cre 270/271): 500 µM
B2	–	–	–	performance of reversed CID orientation versus original orientation (mCherry; GIB: N ss-GAI/GID-ss C, ABA: N ss-PYL/ABI-ss C): stronger inducibility and weaker leakiness; knockdown across the various CID systems (mCherry; split pairs coupled with CID domains, with inducer): consistently strong drug-induced knockdown
